How the values were obtained:
NCI-H358 = assay: Proliferation inhibition, non-small cell lung cancer cell line NCI-H358; type: cell-based; settings: Homo sapiens, NCI-H358, 72 h
Description: (§1) Sixteen non-small cell lung cancer cell lines, including NCI-H1792, NCI-H1703, NCI-H441, SNU-761, NCI-H1975, NCI-H358, NCI-H1838, NCI-H1915, A549, SK-MES-1, NCI-H292, PC-9, NCI-H460, NCI-H23, NCI-H1581, and HLF, were used for the proliferation inhibition assay of the present invention compound. […] The cell detection equipment used was In Cell Analyzer 2200 (GE Healthcare).
(§2) With 60 μM as the initial concentration, ten points were obtained by serial five-fold dilution.
(§3) Each kind of cell in logarithmic growth phase was inoculated with 4000 cells/100 μl/well into a black transparent bottom 96-well plate and cultured overnight at 37° C. The next day, the plate was taken out, and 20 μL of the prepared sample dilutions was added to each well. The plate was then subjected to treatment at 37° C. for 72 hours. After the treatment period of 72 hours, the plate was taken out and 50 μL of neutral formaldehyde fixative (formaldehyde: PBS=1:9, 50 μl/well) was added to each well. The plate was then fixed at room temperature for 10-30 minutes. Subsequently, the wells were washed twice with 1× PBS (100 μl/well) and treated with 0.2% Triton™-X100 for 5-10 minutes to permeabilize the cells. […] The inhibitory rates of each compound at different concentration points were calculated by using the following formula, and IC50 values were obtained through curve fitting using GraphPad Prism 6.0 software.

[1] = test system: Human glioblastoma model (BN2289); assay: Human glioblastoma xenograft mouse model (BN2289); type: in vivo, BALB/C nude mice; settings: for Day 21 Tumor Volume / Relative Average Tumor Volume / T/C (relative tumor growth rate) / TGI (relative tumor inhibition rate): day 21
Excerpt: Human glioblastoma model (BN2289, Crown Bioscience Co., Ltd.) tumor fragments were cut into small pieces with a diameter of 2-3 mm and subcutaneously inoculated into the right side of BALB/C nude mice. Tumor growth was monitored regularly, and when the tumors grew to an average volume of approximately 100-200 mm^3, mice were randomly divided into groups based on the tumor size.
Each group consisted of 8 mice and received oral gavage administration once daily for a total of 28 days. Regular observations were made on tumor volume and changes in body weight. Efficacy evaluation was conducted based on the relative tumor growth rate (T/C) and the relative tumor inhibition rate (TGI).
The formula for calculating tumor volume was: Tumor Volume (mm^3)=½×(a×b^2) (where “a” represents the long diameter and “b” represents the short diameter).
The relative tumor growth rate (T/C) is the percentage value of the relative tumor volume or weight between the treatment group and the control group at a certain time point. The calculation formula is as follows: • T/C(%)=TRTV/CRTV×100% (TRTV: Average RTV of the treatment group; CRTV: Average RTV of the Vehicle group; RTV=Vt/V0, where V0 is the tumor volume of the animal at the time of grouping and Vt is the tumor volume of the animal after treatment).
(T and C are the relative tumor volume (RTV) or weight (TW) of the treatment group and control group at a specific time point, respectively).

PC-9 = assay: Proliferation inhibition, non-small cell lung cancer cell line PC-9; type: cell-based; settings: Homo sapiens, PC-9, 72 h
Description: as §1, §2, §3

HLF = assay: Proliferation inhibition, non-small cell lung cancer cell line HLF; type: cell-based; settings: Homo sapiens, 72 h
Description: as §1, §2, §3

[2] = 10 mg/kg oral gavage once daily
[3] = 25 mg/kg oral gavage once daily
[4] = 50 mg/kg oral gavage once daily

In the case of `CC1=Nc2c(F)cc(-c3nc(Nc4ccc(C5CCN(C)CC5)cn4)ncc3F)cc2C12CCCC2.O=C(O)/C=C/C(=O)O` [Compound A, Fumarate salt of 5-fluoro-4-(7′-fluoro-2′-methylspiro[cyclopentane-1,3′-indol]-5′-yl)-N-(5-(1-methylpiperidin-4-yl)pyridin-2-yl)pyrimidine-2-amine], the IC50 (NCI-H358) is reported as 17 nM, the “Day 21 Tumor Volume” value ([1]; 5 mg/kg oral gavage once daily) is reported as 2038.41 ± 177.46 mm^3 and the “Relative Average Tumor Volume” value ([1]; 5 mg/kg oral gavage once daily) is reported as 13.80. For the same compound, the “T/C (relative tumor growth rate)” value ([1]; 5 mg/kg oral gavage once daily) was 95.08%, the “TGI (relative tumor inhibition rate)” value ([1]; 5 mg/kg oral gavage once daily) was 4.92% and the “Day 21 Tumor Volume” value [1, 2] was 1900.70 ± 134.20 mm^3. The “Relative Average Tumor Volume” value [1, 2] was 12.81, the “T/C (relative tumor growth rate)” value [1, 2] was 88.24% and the “TGI (relative tumor inhibition rate)” value [1, 2] was 11.76%. For the same compound, the “Day 21 Tumor Volume” value [1, 3] was 1302.81 ± 119.99 mm^3, the “Relative Average Tumor Volume” value [1, 3] was 8.80 and the “T/C (relative tumor growth rate)” value [1, 3] was 60.61%. For the same compound, the “TGI (relative tumor inhibition rate)” value [1, 3] was 39.39%, the “Day 21 Tumor Volume” value [1, 4] was 938.13 ± 52.26 mm^3 and the “Relative Average Tumor Volume” value [1, 4] was 6.32. For the same compound, the “T/C (relative tumor growth rate)” value [1, 4] was 43.56%, the “TGI (relative tumor inhibition rate)” value [1, 4] was 56.44% and the “Drug toxicity / tolerance (body weight)” value ([1]; 5-50 mg/kg oral gavage once daily, 28 days) was “no significant toxic side effects”. The IC50 (PC-9) was 180 nM and the IC50 (HLF) was 2010 nM.
